According to the NIST ThermoML archive (doi:10.1021/je500513b):
Numbers after ± are expanded uncertainties.

Test: mn = molality of the nth substance listed, in mol/kg
Details: for surface tension liquid-gas: Pendant drop shape; for electrical conductivity: 100 kPa, Liquid, Mettler Toledo inLab 710

CCCCCCCCCCCCCC[N+](C)(C)CCCCCC[N+](C)(C)CCCCCCCCCCCCCC.[Br-].[Br-] + O
Details	electrical conductivity, 298.15 K [S/m]	electrical conductivity, 303.15 K [S/m]	electrical conductivity, 308.15 K [S/m]	electrical conductivity, 313.15 K [S/m]	electrical conductivity, 318.15 K [S/m]	electrical conductivity, 323.15 K [S/m]	surface tension liquid-gas, 298.15 K [mN/m]
m1 = 1e-05	–	–	–	–	–	–	61.8 ± 9.3
m1 = 2e-05	–	–	–	–	–	–	56.01 ± 11
m1 = 3e-05	–	–	–	–	–	–	52.48 ± 6.4
m1 = 4e-05	–	–	–	–	–	–	50.87 ± 4.5
m1 = 5e-05	–	–	–	–	–	–	49.03 ± 3.3
m1 = 6e-05	–	–	–	–	–	–	47.1 ± 3.9
m1 = 7e-05	–	–	–	–	–	–	45.98 ± 2.8
m1 = 8e-05	–	–	–	–	–	–	43.05 ± 2.5
m1 = 0.0001	–	–	–	–	–	–	42.1 ± 0.87
m1 = 0.000111	0.00247 ± 0.00034	0.00278 ± 0.00043	0.00326 ± 0.00044	0.00342 ± 0.00038	0.00369 ± 0.0006	0.00384 ± 0.00062	–
m1 = 0.000115	0.00256 ± 0.00032	–	–	–	–	–	–
m1 = 0.000118	–	0.00293 ± 0.00042	0.00339 ± 0.00042	0.00353 ± 0.00043	0.00387 ± 0.00057	0.004 ± 0.00066	–
m1 = 0.00012	0.00265 ± 0.00031	–	–	–	–	–	41.5 ± 0.87
m1 = 0.000125	0.00273 ± 0.00031	0.00311 ± 0.0004	0.00353 ± 0.00041	0.00364 ± 0.00048	0.00407 ± 0.0006	0.00426 ± 0.00063	–
m1 = 0.00013	0.0028 ± 0.00032	–	–	–	–	–	–
m1 = 0.000133	–	0.00327 ± 0.00041	0.00369 ± 0.0004	0.00386 ± 0.00046	0.00431 ± 0.00057	0.00452 ± 0.00061	–
m1 = 0.000136	0.00289 ± 0.00033	–	–	–	–	–	–
m1 = 0.00014	–	–	–	–	–	–	40.55 ± 0.76
m1 = 0.000143	0.003 ± 0.00031	0.00347 ± 0.0004	0.00386 ± 0.0004	0.00411 ± 0.00048	0.00454 ± 0.00057	0.00482 ± 0.00063	–
m1 = 0.00015	0.00312 ± 0.00031	0.00361 ± 0.00038	0.004 ± 0.0004	0.00429 ± 0.00053	0.00478 ± 0.00058	0.00504 ± 0.00063	–
m1 = 0.000158	0.00326 ± 0.00029	0.00375 ± 0.00035	0.00418 ± 0.00039	0.00449 ± 0.00051	0.00503 ± 0.00055	0.00526 ± 0.00061	–
m1 = 0.000167	0.00338 ± 0.00029	0.00391 ± 0.00035	0.00438 ± 0.0004	0.00467 ± 0.00053	0.00529 ± 0.00057	0.00554 ± 0.00061	–
m1 = 0.00017	–	–	–	–	–	–	39.84 ± 0.61
m1 = 0.000176	0.00352 ± 0.00027	0.00407 ± 0.00032	0.00458 ± 0.0004	0.00494 ± 0.00049	0.00559 ± 0.00057	0.00586 ± 0.00061	–
m1 = 0.000188	0.00365 ± 0.00025	0.00424 ± 0.00029	0.00478 ± 0.00035	0.00523 ± 0.00047	0.00588 ± 0.00052	0.00618 ± 0.00058	–
m1 = 0.000197	–	0.00435 ± 0.00027	0.00493 ± 0.00034	0.00541 ± 0.00042	0.00613 ± 0.00051	0.00647 ± 0.00056	–
m1 = 0.0002	0.0038 ± 0.00022	–	–	–	–	–	39.13 ± 0.42
m1 = 0.000207	–	0.0045 ± 0.00027	0.00512 ± 0.00033	0.00562 ± 0.00041	0.00638 ± 0.00049	0.00676 ± 0.00055	–
m1 = 0.000214	0.00396 ± 0.00023	–	–	–	–	–	–
m1 = 0.000218	–	0.00464 ± 0.00026	0.00529 ± 0.00032	0.00582 ± 0.00036	0.00665 ± 0.00048	0.00702 ± 0.00053	–
m1 = 0.000231	0.00413 ± 0.00022	0.00479 ± 0.00024	0.00548 ± 0.00028	0.00602 ± 0.00034	0.00694 ± 0.00041	0.00736 ± 0.00049	–
m1 = 0.00024	0.00423 ± 0.00021	0.00491 ± 0.00023	0.0056 ± 0.00028	0.00617 ± 0.00031	0.00714 ± 0.00042	0.0076 ± 0.0005	–
m1 = 0.00025	0.00434 ± 0.00021	0.00502 ± 0.00023	0.00573 ± 0.00028	0.00633 ± 0.00031	0.00734 ± 0.0004	0.00784 ± 0.00048	–
m1 = 0.000261	0.00445 ± 0.0002	0.00513 ± 0.00021	0.00587 ± 0.00027	0.00647 ± 0.00028	0.00755 ± 0.00039	0.00808 ± 0.00042	–
m1 = 0.000273	0.00456 ± 0.00019	0.00524 ± 0.00022	0.00604 ± 0.00027	0.00663 ± 0.00029	0.00777 ± 0.00037	0.00832 ± 0.00039	–
m1 = 0.000286	0.00469 ± 0.0002	0.00539 ± 0.00025	0.00621 ± 0.00022	0.00681 ± 0.00043	0.008 ± 0.00021	0.00856 ± 0.00039	–
m1 = 0.0003	0.00481 ± 0.00019	0.00556 ± 0.00026	0.00639 ± 0.00022	0.00704 ± 0.00044	0.00822 ± 0.0002	0.0088 ± 0.00037	38.57 ± 0.38
m1 = 0.0004	–	–	–	–	–	–	38.4 ± 0.38
